Measurements as given in US20070203104A1, “Pharmaceutical Formulations” (priority 2006, published 2007).

Experiments:
[1] = symptoms associated with chronic nasal congestion, cited from earlier work
[2] = cited from earlier work
[3] = cited from earlier work; remark: listed apart in the source
[4] = tested on: rhinoviruses; details: cited from earlier work
[5] = Solubility; type: physicochemical
[6] = tested on: secretions of natural tear components; details: preclinical testing; cited from earlier work

Compound: Oc1cccc(Nc2ncc(F)c(Nc3cccc(O)c3)n2)c1 [Example R112]
- improvement from baseline measurements ([1]; baseline prior to drug initiation): up to 38%
- absolute difference over placebo [1]: 9%
- relative improvement over placebo [1]: greater than 20%

Compound: C[C@@H]1C[C@H]2[C@@H]3CCC4=CC(=O)C=C[C@]4(C)[C@@]3(Cl)[C@@H](O)C[C@]2(C)[C@@]1(OC(=O)c1ccco1)C(=O)CCl [Mometasone Furoate]
- bioavailability [2]: not readily bioavailable

Compound: Cc1cc(CCCOc2c(C)cc(-c3noc(C(F)(F)F)n3)cc2C)on1 [Pleconaril, 1,2,4-oxadiazole3-[3,5-Dimethyl-4-[3-(3-methyl-5-isoxazolyl)propoxy]phenyl]-5-(trifluoremethyl)]
- solubility in aqueous solvents [3]: insoluble
- activity against rhinoviruses [4]: active
- solubility in condensed phases of hydrofluorocarbons ([5]; certain condensed phases of hydrofluorocarbons, e.g. HFA 227): can be dissolved
- solubility in certain glyceride oils ([5]; certain glyceride oils, e.g. Miglyol 812): can be dissolved

Compound: O=c1ccn([C@@H]2O[C@H](COP(=O)(O)OP(=O)(O)OP(=O)(O)OP(=O)(O)OC[C@H]3O[C@@H](n4ccc(=O)[nH]c4=O)[C@H](O)[C@@H]3O)[C@@H](O)[C@H]2O)c(=O)[nH]1 [diquafosol]
- secretions of natural tear components [6]: increased
